In patent publication US6649595B2, “Regulation of biological events using novel compounds” (ARIAD Gene Therapeutics, Inc., priority 1995, dated 2003):
Where two headings read alike, the source gives them in different places.

Legend:
[1] = tested on: transfected HT1080 cells (hGH target gene) transplanted into nu/nu mice; assay: Rapamycin-dependent production of hGH in mice; type: in vivo
Text: In Vivo Methods: Animals, husbandry, and general procedures. Male nu/nu mice were obtained from Charles River Laboratories (Wilmington, Mass.) and allowed to acclimate for five days prior to experimentation. They were housed under sterile conditions, were allowed free access to sterile food and sterile water throughout the entire experiment, and were handled with sterile techniques throughout.
To transplant transiently transfected cells into mice, 2×10^6 transfected HT1080 cells, were suspended in […] PBS/0.1% BSA/0.1% glucose buffer, and administered into four intramuscular sites (approximately […] per site) on the haunches and flanks of the animals. Control mice received equivalent volume injections of buffer alone.
The accuracy of the dosing solutions was confirmed by HPLC analysis prior to intravenous administration into the tail veins. […] In addition, other control mice, bearing transfected cells, received only the rapamycin vehicle.
Blood was collected by either anesthetizing or sacrificing mice via CO2 inhalation. Anesthetized mice were used to collect […] of blood by cardiac puncture. The mice were revived and allowed to recover for subsequent blood collections. Sacrificed mice were immediately exsanguinated. Blood samples were allowed to clot for 24 hours, at 4° C., and sera were collected following centrifugation at 1000×g for 15 minutes. Serum hGH was measured by the Boehringer Mannheim non-isotopic sandwich ELISA (Cat No. 1 585 878). […] Recommended assay instructions were followed.
Mice were administered transfected HT1080 cells as described above. […] The four remaining doses were given under anesthesia, immediately subsequent to blood collection, at 16, 32, 48, and 64 hours. […] Experimental animals and their control counterparts were each assigned to one of two groups. Each of the two experimental groups and two control groups received identical drug or vehicle treatments, respectively. The groups differed in that blood collection times were alternated between the two groups to reduce the frequency of blood collection for each animal.

[2] = Rapamycin pharmacokinetics in mice; type: in vivo
[3] = tested on: HT1080 cells expressing M30 / M31 (FRAP-FKBP-Fas) constructs; assay: Rapamycin-regulated apoptosis of stably transfected HT1080 cells; type: cell-based, human; conditions: with 50 ng/ml actinomycin D, about 20 hours, alamar blue
Text: (f) Rapamycin-regulated apoptosis of stable transsfected human HT1080 cells in culture XbaI-BamHI fragments from constructs A30 and A31 (d, table 1) were cloned into pCM to generate M30 and M31, constructs that direct the expression of MT5FasSE and MT6FasSE, where M denotes a myristoylation domain (see this example sections A.1. and A.8.) and other abbreviations are as described in d, table 1. EcoRI-BamHI fragments containing these expression cassettes were then cloned into the retroviral vector pSMN3 (Example 7). […] HT1080 cells were infected with viral stock and selected with G418.
The media was removed and replaced with 100 μl of media containing 10% alamar blue dye. Plates were incubated as before, and the extent of cell viability assessed periodically by spectrophotometric determination of OD at 570 nm and 600 nm on a microtiter plate reader. Typically reading was continued until control (untreated) wells are at OD 0.2-0.4 after subtraction of blank.

FKBPwt = target: T1, FKBPwt (Homo sapiens, UniProt P62942); assay: Competitive fluorescence polarization (FP) binding assay of rapalogs to FKBP; conditions: C7 rapalogs; for fold loss in affinity (cf rapamycin): =IC50/IC50 of rapamycin
T1 construct: made in house
T1 sequence (P62942 whole entry): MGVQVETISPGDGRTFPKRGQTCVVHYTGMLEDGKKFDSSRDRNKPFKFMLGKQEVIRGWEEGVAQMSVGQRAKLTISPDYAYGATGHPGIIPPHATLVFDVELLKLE
Method: Serial 10-fold dilutions of each analog were prepared in 100% ethanol in glass vials and stored on ice. All other manipulations were performed at room temperature. […] Finally, a probe solution was prepared containing 10 nM AP1491 in 0.1% ethanol/FP buffer, and 100 μl added to each well with mixing.
The plates were stored covered in the dark for approximately 30 min to permit equilibration and then the fluorescence polarization of the sample in each well read on a Jolley FPM-2 FP plate reader (Jolley Consulting and Research, Inc., Grayslake, Ill.) in accordance with the manufacturer's recommendations. The mean polarization (mP units)
for each competitor concentration was usually converted to % total binding by reference to the control values and plotted (y) vs. log molar final concentration of competitor (x). Non-linear least square analysis was used to fit the curve and extract the IC50 using the following equation:
y=M1+(M4−M1)/(1+exp(M2*(M3−x)))
where M3 is the IC50. For incomplete curves the IC50 was determined by interpolation.

[4] = read-out: FKBPwt FP binding assay IC50

## CO[C@H]1C[C@@H]2CC[C@@H](C)[C@@](O)(O2)C(=O)C(=O)N2CCCC[C@H]2C(=O)O[C@H]([C@H](C)C[C@@H]2CC[C@@H](O)[C@H](OC)C2)CC(=O)[C@H](C)/C=C(\C)[C@@H](O)[C@@H](OC)C(=O)[C@H](C)C[C@H](C)/C=C/C=C/C=C/1C [rapamycin, Rapamycin]
[1]; 0.01-10.0 mg/kg intravenous, serum 17 hours after dosing
  production of hGH in mice: dose-responsive production of hGH
[1]; single 10.0 mg/kg dose
  time after treatment at which serum hGH remained detectable: 42 h
  time at which serum hGH was observed: within four hours
  time of peak serum hGH: eight hours
[1]; single 10.0 mg/kg dose, eight hours
  peak serum hGH level: over one hundred times the sensitivity limit of the hGH ELISA
[2]; 10.0 mg/kg at 16-hour intervals, after two doses
  predicted steady-state trough concentration of rapamycin: 1.7 µg/mL
[2]; nu/nu, mouse, in vivo, mice, intravenous
  half-life: 4.6 h
[3]
  survival of stably transfected cells: potently reduced

## CO[C@@H]1C[C@H](C[C@@H](C)[C@@H]2CC(=O)[C@H](C)/C=C(\C)[C@@H](O)[C@@H](OC)C(=O)[C@H](C)C[C@H](C)/C=C/C=C/C=C(\C)[C@@H](c3ccco3)C[C@@H]3CC[C@@H](C)[C@@](O)(O3)C(=O)C(=O)N3CCCC[C@H]3C(=O)O2)CC[C@H]1O [Compound 34]
FKBPwt
  fold loss in affinity (cf rapamycin): 12
FKBPwt; FKBPwt FP binding assay IC50 (nM)
  IC50: 28 nM

## CCOC1C[C@@H]2CC[C@@H](C)[C@@](O)(O2)C(=O)C(=O)N2CCCC[C@H]2C(=O)OC([C@H](C)C[C@@H]2CC[C@@H](O)[C@H](OC)C2)CC(=O)[C@H](C)/C=C(\C)[C@@H](O)[C@@H](OC)C(=O)[C@H](C)C[C@H](C)/C=C/C=C/C=C/1C (stereo partly shown) [Compound 28]
FKBPwt
  fold loss in affinity (cf rapamycin): 1.6
FKBPwt; [4]
  IC50: 3.7 nM

## CCOC1C[C@@H]2CC[C@@H](C)[C@@](O)(O2)C(=O)C(=O)N2CCCC[C@H]2C(=O)OC([C@H](C)C[C@@H]2CC[C@@H](O)[C@H](OC)C2)CC(=O)[C@H](C)/C=C(\C)[C@@H](O)[C@@H](OC)C(=O)[C@H](C)C[C@H](C)/C=C/C=C/C=C/1C (stereo partly shown) [Compound 27]
FKBPwt
  fold loss in affinity (cf rapamycin): 1.1
FKBPwt; [4]
  IC50: 2.6 nM

## COc1ccc(C2CC3CCC(C)C(O)(O3)C(=O)C(=O)N3CCCCC3C(=O)OC(C(C)CC3CCC(O)C(OC)C3)CC(=O)C(C)C=C(C)C(O)C(OC)C(=O)C(C)CC(C)C=CC=CC=C2C)c(OC)c1 (single isomer, unassigned) [Compound 42]
FKBPwt
  fold loss in affinity (cf rapamycin): 1.0
FKBPwt; [4]
  IC50: 2.2 nM
